In ChEMBL document CHEMBL1201862, “PubChem BioAssay data set” (2004):
Structures can show the parent of a compound that is named as a salt.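 Growth conditions: 96-well plates. Treatment: test compound, 48 hours, 5 concentrations. Analysis: linear interpolation between bracketing concentrations; unreached endpoints set to highest concentration. Abbreviation: GI50, concentration required for 50% inhibition of growth.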 Active and inactive are the calls of the source. No stated cut-off is given here; in the data, active = GI50 up to about 1.1 µM and inactive = higher.

Key:
Test in all cases: inhibition of tumour cell growth, NCI panel, 48 h
LOX IMVI = test system: LOX IMVI
OVCAR-8 = test system: OVCAR-8
Malme-3M = test system: Malme-3M
EKVX = test system: EKVX
SK-MEL-5 = test system: SK-MEL-5
HCT-116 = test system: HCT-116
OVCAR-5 = test system: OVCAR-5
HL-60 = test system: HL-60
HCC 2998 = test system: HCC 2998
SN12C = test system: SN12C
NCI-H460 = test system: NCI-H460
UACC-62 = test system: UACC-62
MOLT-4 = test system: MOLT-4
OVCAR-3 = test system: OVCAR-3
A498 = test system: A498
ACHN = test system: ACHN
OVCAR-4 = test system: OVCAR-4
UO-31 = test system: UO-31
HOP-92 = test system: HOP-92
SK-MEL-2 = test system: SK-MEL-2

Measured: GI50

O=C1OC(c2ccccc2)=N/C1=C/NC(Cc1c[nH]c2ccccc12)C(=O)O (stereo not given)
inactive: LOX IMVI > 100 µM | OVCAR-8 > 100 µM | Malme-3M > 100 µM | EKVX > 100 µM | SK-MEL-5 > 100 µM | HCT-116 > 100 µM | OVCAR-5 > 100 µM | HL-60 > 100 µM | HCC 2998 > 100 µM | SN12C > 100 µM | NCI-H460 > 100 µM | UACC-62 > 100 µM | MOLT-4 > 100 µM | OVCAR-3 > 100 µM | A498 > 100 µM | ACHN > 100 µM | OVCAR-4 > 100 µM | UO-31 > 100 µM | HOP-92 > 100 µM | SK-MEL-2 > 100 µM

CC(C)(C)/N=C/N1C=Cc2nc3ccccc3cc2C1
inactive: LOX IMVI 26.7 µM | OVCAR-8 > 100 µM | Malme-3M > 100 µM | EKVX > 100 µM | SK-MEL-5 > 100 µM | HCT-116 > 100 µM | OVCAR-5 > 100 µM | HL-60 75.7 µM | HCC 2998 > 100 µM | SN12C > 100 µM | NCI-H460 32.6 µM | UACC-62 > 100 µM | MOLT-4 > 100 µM | OVCAR-3 > 100 µM | A498 > 100 µM | ACHN > 100 µM | OVCAR-4 > 100 µM | UO-31 > 100 µM | HOP-92 > 100 µM | SK-MEL-2 > 100 µM

CCCCCOc1ccc(NC2=C(Cl)C(=O)c3c(O)ccc(O)c3C2=O)cc1
inactive: LOX IMVI 1.79 µM | OVCAR-8 2.99 µM | Malme-3M 2.49 µM | EKVX > 10 µM | SK-MEL-5 5.43 µM | HCT-116 2.88 µM | OVCAR-5 > 10 µM | HL-60 1.37 µM | HCC 2998 2.65 µM | SN12C 2.96 µM | NCI-H460 4.13 µM | UACC-62 5.42 µM | MOLT-4 3.7 µM | OVCAR-3 4.2 µM | A498 > 10 µM | ACHN > 10 µM | OVCAR-4 5.12 µM | UO-31 5.26 µM | HOP-92 6.85 µM | SK-MEL-2 > 10 µM

CNNCc1ccc(C(=O)NC(C)C)cc1 [PROCARBAZINE HYDROCHLORIDE]
inactive: LOX IMVI > 486 µM | OVCAR-8 > 500 µM | Malme-3M > 457 µM | EKVX > 500 µM | SK-MEL-5 385 µM | HCT-116 > 500 µM | OVCAR-5 > 439 µM | HL-60 > 478 µM | HCC 2998 > 398 µM | SN12C > 500 µM | NCI-H460 > 500 µM | UACC-62 366 µM | MOLT-4 426 µM | OVCAR-3 > 472 µM | A498 > 500 µM | ACHN > 500 µM | OVCAR-4 > 500 µM | UO-31 > 500 µM | HOP-92 369 µM | SK-MEL-2 > 500 µM

O=C(CSCC(=O)N/N=C/c1ccncc1)N/N=C/c1ccncc1
inactive: LOX IMVI > 100 µM | OVCAR-8 > 100 µM | Malme-3M > 100 µM | EKVX > 100 µM | SK-MEL-5 > 100 µM | HCT-116 > 100 µM | OVCAR-5 > 100 µM | HL-60 > 100 µM | HCC 2998 > 100 µM | SN12C > 100 µM | NCI-H460 > 100 µM | UACC-62 > 100 µM | MOLT-4 > 100 µM | OVCAR-3 > 100 µM | A498 > 100 µM | ACHN > 100 µM | OVCAR-4 > 100 µM | UO-31 > 100 µM | HOP-92 > 100 µM | SK-MEL-2 > 100 µM

CC(C)OP(=O)(OC(C)C)/C(=N/Nc1ccc([N+](=O)[O-])cc1)NN
inactive: LOX IMVI > 100 µM | OVCAR-8 > 100 µM | Malme-3M > 100 µM | EKVX 61.9 µM | SK-MEL-5 35.7 µM | HCT-116 > 100 µM | OVCAR-5 > 100 µM | HL-60 > 100 µM | HCC 2998 > 100 µM | SN12C > 100 µM | NCI-H460 > 100 µM | UACC-62 34.4 µM | MOLT-4 61.9 µM | OVCAR-3 > 100 µM | A498 > 100 µM | ACHN 98.6 µM | OVCAR-4 > 100 µM | UO-31 88.5 µM | HOP-92 65 µM | SK-MEL-2 > 100 µM

COc1ccc2[nH]c3c(c2c1)[C@H]1CCC(C(C)(C)C)C[C@H]1[C@H]1C(=O)N(c2ccccc2)C(=O)[C@@H]31 (stereo not given in full)
inactive: LOX IMVI 20.7 µM | OVCAR-8 6.84 µM | Malme-3M 15.8 µM | EKVX 32.7 µM | SK-MEL-5 > 47.6 µM | HCT-116 12.4 µM | OVCAR-5 > 60.1 µM | HL-60 39.4 µM | HCC 2998 36 µM | SN12C 11.9 µM | NCI-H460 6.9 µM | UACC-62 31 µM | MOLT-4 20.9 µM | OVCAR-3 23.3 µM | A498 14.7 µM | ACHN 4.17 µM | OVCAR-4 3.3 µM | UO-31 24 µM | HOP-92 6.21 µM | SK-MEL-2 20 µM

NC1c2c(Br)sc(N3CCCC3)c2C(=O)C1O (stereo not given)
inactive: LOX IMVI > 50 µM | OVCAR-8 > 50 µM | Malme-3M > 50 µM | EKVX > 50 µM | SK-MEL-5 > 50 µM | HCT-116 > 50 µM | OVCAR-5 > 50 µM | HL-60 > 50 µM | HCC 2998 36.6 µM | SN12C > 50 µM | NCI-H460 > 50 µM | UACC-62 > 50 µM | MOLT-4 > 50 µM | OVCAR-3 > 50 µM | A498 > 50 µM | ACHN > 50 µM | OVCAR-4 > 50 µM | UO-31 > 50 µM | HOP-92 26.2 µM | SK-MEL-2 > 50 µM

CNc1ccc2ncccc2c1[N+](=O)[O-]
inactive: LOX IMVI > 100 µM | OVCAR-8 > 100 µM | Malme-3M > 100 µM | EKVX > 100 µM | SK-MEL-5 > 100 µM | HCT-116 > 100 µM | OVCAR-5 > 100 µM | HL-60 > 100 µM | HCC 2998 > 100 µM | SN12C > 100 µM | NCI-H460 > 100 µM | UACC-62 > 100 µM | MOLT-4 > 100 µM | OVCAR-3 > 100 µM | A498 > 100 µM | ACHN > 100 µM | OVCAR-4 > 100 µM | UO-31 > 100 µM | HOP-92 > 100 µM | SK-MEL-2 > 100 µM

C=C(C[C@@H](O)[C@H](C)NC(=O)OCc1ccccc1)C(=O)OC(C)(C)C
inactive: LOX IMVI 53.8 µM | OVCAR-8 66.8 µM | Malme-3M > 100 µM | EKVX 76.6 µM | SK-MEL-5 26.1 µM | HCT-116 > 100 µM | OVCAR-5 > 100 µM | HL-60 26.3 µM | HCC 2998 > 100 µM | SN12C > 100 µM | NCI-H460 > 100 µM | UACC-62 51.2 µM | MOLT-4 46.2 µM | OVCAR-3 78.2 µM | A498 > 100 µM | ACHN > 100 µM | OVCAR-4 47.5 µM | UO-31 > 100 µM | HOP-92 > 100 µM | SK-MEL-2 > 100 µM
